Source: ChEMBL document CHEMBL3414466, “Synthesis and anticancer activity of N-substituted 2-arylquinazolinones bearing trans-stilbene scaffold” (Eur J Med Chem, 2015)
The source made the active and inactive calls. The calls are words filed in the database; no cut-off is given here.

Assays:
MDA-MB-231 [1] = assay: Cytotoxicity against human MDA-MB-231 cells by MTT assay; assay type: functional, cell-based
T47D [2] = assay: Cytotoxicity against human T47D cells by MTT assay; assay type: functional, cell-based
MCF7 [3] = assay: Cytotoxicity against human MCF7 cells by MTT assay; assay type: functional, cell-based
MDA-MB-231 [4] = assay: Induction of apoptosis in human MDA-MB-231 cells assessed as early apoptotic cells at IC50 after 12 hrs by annexin V-FITC/propidium iodide staining-based flow cytometric analysis (reference value: 3.82%); assay type: functional
MDA-MB-231 [5] = assay: Induction of apoptosis in human MDA-MB-231 cells assessed as viable cells at IC50 after 12 hrs by annexin V-FITC/propidium iodide staining-based flow cytometric analysis (reference value: 95.2%); assay type: functional
MDA-MB-231 [6] = assay: Induction of apoptosis in human MDA-MB-231 cells assessed as change in morphology at IC50 after 24 hrs by acridine orange/ethidium bromide staining-based fluorescence microscopic analysis; assay type: functional, cell-based
MCF7 [7] = assay: Induction of apoptosis in human MCF7 cells assessed as necrotic cells at IC50 after 12 hrs by annexin V-FITC/propidium iodide staining-based flow cytometric analysis (reference value: 0.29%); assay type: functional
MCF7 [8] = assay: Potency index, ratio of etoposide IC50 to compound IC50 for human MCF7 cells; assay type: functional
MCF7 [9] = assay: Induction of apoptosis in human MCF7 cells assessed as change in morphology at IC50 after 24 hrs by acridine orange/ethidium bromide staining-based fluorescence microscopic analysis; assay type: functional, cell-based
MDA-MB-231 [10] = assay: Induction of apoptosis in human MDA-MB-231 cells assessed as necrotic cells at IC50 after 12 hrs by annexin V-FITC/propidium iodide staining-based flow cytometric analysis (reference value: 0.97%); assay type: functional
MDA-MB-231 [11] = assay: Induction of apoptosis in human MDA-MB-231 cells assessed as late apoptotic cells at IC50 after 12 hrs by annexin V-FITC/propidium iodide staining-based flow cytometric analysis (reference value: 0.01%); assay type: functional
MDA-MB-231 [12] = assay: Potency index, ratio of etoposide IC50 to compound IC50 for human MDA-MB-231 cells; assay type: functional
T47D [13] = assay: Potency index, ratio of etoposide IC50 to compound IC50 for human T47D cells; assay type: functional
MCF7 [14] = assay: Induction of apoptosis in human MCF7 cells assessed as early apoptotic cells at IC50 after 12 hrs by annexin V-FITC/propidium iodide staining-based flow cytometric analysis (reference value: 2.49%); assay type: functional
MCF7 [15] = assay: Induction of apoptosis in human MCF7 cells assessed as late apoptotic cells at IC50 after 12 hrs by annexin V-FITC/propidium iodide staining-based flow cytometric analysis relative to control; assay type: functional
MCF7 [16] = assay: Induction of apoptosis in human MCF7 cells assessed as viable cells at IC50 after 12 hrs by annexin V-FITC/propidium iodide staining-based flow cytometric analysis (reference value: 97.23%); assay type: functional

| SMILES | IC50 (MDA-MB-231 [1]) [µM] | IC50 (T47D [2]) [µM] | IC50 (MCF7 [3]) [µM] | other results |
| --- | --- | --- | --- | --- |
| O=c1c2ccccc2nc(-c2ccccc2/C=C/c2ccccc2)n1-c1ccccc1 | > 100 | > 100 | 44.9 |  |
| CCC(C)n1c(-c2ccccc2/C=C/c2ccccc2)nc2ccccc2c1=O (stereo not drawn) | 4.9 | 3.6 | 3.8 | Activity (MDA-MB-231 [4]): 16.55%; Activity (MDA-MB-231 [5]): 80.2%; Activity (MDA-MB-231 [6]): Active; Activity (MCF7 [7]): 2.14%; Ratio IC50 (MCF7 [8]): 2; Activity (MCF7 [9]): Active; Activity (MDA-MB-231 [10]): 0.97%; Activity (MDA-MB-231 [11]): 2.27%; Ratio IC50 (MDA-MB-231 [12]): 2; Ratio IC50 (T47D [13]): 2; Activity (MCF7 [14]): 26.45%; Activity (MCF7 [15]): 1.95%; Activity (MCF7 [16]): 69.46% |
| CCn1c(-c2ccccc2/C=C/c2ccccc2)nc2ccccc2c1=O | 8.4 | 10.2 | 8.7 |  |
| Cc1ccc(Cn2c(-c3ccccc3/C=C/c3ccccc3)nc3ccccc3c2=O)cc1 | 23.8 | 28.2 | 24.7 |  |
| CC(C)n1c(-c2ccccc2/C=C/c2ccccc2)nc2ccccc2c1=O | 8.4 | 6.2 | 6.7 |  |
| COc1cc([C@@H]2c3cc4c(cc3[C@@H](O[C@@H]3O[C@@H]5CO[C@@H](C)O[C@H]5[C@H](O)[C@H]3O)[C@H]3COC(=O)[C@H]23)OCO4)cc(OC)c1O [ETOPOSIDE] | 10.3 | 8.9 |  | Activity (MDA-MB-231 [4]): 22.41%; Activity (MDA-MB-231 [5]): 76.53%; Activity (MCF7 [7]): 0.1%; Activity (MDA-MB-231 [10]): 0.27%; Activity (MDA-MB-231 [11]): 0.8%; Activity (MCF7 [14]): 36.92%; Activity (MCF7 [15]): 0.08%; Activity (MCF7 [16]): 62.89% |
| CCCCn1c(-c2ccccc2/C=C/c2ccccc2)nc2ccccc2c1=O | 4 | 7.9 | 9.8 |  |
| COc1ccc(Cn2c(-c3ccccc3/C=C/c3ccccc3)nc3ccccc3c2=O)cc1 | > 100 | > 100 | > 100 |  |
| COc1ccc(-n2c(-c3ccccc3/C=C/c3ccccc3)nc3ccccc3c2=O)cc1 | > 100 | > 100 | > 100 |  |
| O=c1c2ccccc2nc(-c2ccccc2/C=C/c2ccccc2)n1Cc1ccccc1 | > 100 | > 100 | > 100 |  |
| O=c1c2ccccc2nc(-c2ccccc2/C=C/c2ccccc2)n1C1CC1 | 5.5 | 6.8 | 5.3 | Activity (MDA-MB-231 [4]): 22.41%; Activity (MDA-MB-231 [5]): 70.13%; Activity (MDA-MB-231 [6]): Active; Activity (MCF7 [7]): 0.59%; Activity (MCF7 [9]): Active; Activity (MDA-MB-231 [10]): 4.37%; Activity (MDA-MB-231 [11]): 3.09%; Activity (MCF7 [14]): 25.88%; Activity (MCF7 [15]): 0.77%; Activity (MCF7 [16]): 72.75% |
| Cc1ccc(-n2c(-c3ccccc3/C=C/c3ccccc3)nc3ccccc3c2=O)cc1 | > 100 | > 100 | > 100 |  |
| CCCn1c(-c2ccccc2/C=C/c2ccccc2)nc2ccccc2c1=O | > 100 | > 100 | 29.4 |  |
| CC(C)Cn1c(-c2ccccc2/C=C/c2ccccc2)nc2ccccc2c1=O | 6.9 | 9.3 | 23.3 |  |
| C=CCn1c(-c2ccccc2/C=C/c2ccccc2)nc2ccccc2c1=O | 4.1 | 5.8 | 10.3 |  |
| O=c1c2ccccc2nc(-c2ccccc2/C=C/c2ccccc2)n1C1CCCC1 | > 100 | > 100 | > 100 |  |
